Assay results from patent US20210238170A1, “5,5-Difluoro- and 5-Fluoro-5-Methyl-C-Glycoside Derivatives Useful As Dual SGLT1 / SGLT2 Modulators” (Janssen Pharmaceutica NV, priority 2018, published 2021).
Where two headings read alike, the source gives them in different places.

Columns and labels:
human SGLT2 = molecular target: T1, human SGLT2 (Homo sapiens, UniProt P31639); experiment: SGLT2 in vitro assay: Na-dependent 14C-AMG uptake in CHO-K1 cells stably expressing human SGLT2; assay type: cell-based; conditions: for inhibition at 0.3 µM: read-out: SGLT2 % Inh @ 0.3 μM; for IC50: compounds of formula (I) where R0 is fluoro
T1 construct: expressed in transfected cells
T1 sequence (P31639 1-672): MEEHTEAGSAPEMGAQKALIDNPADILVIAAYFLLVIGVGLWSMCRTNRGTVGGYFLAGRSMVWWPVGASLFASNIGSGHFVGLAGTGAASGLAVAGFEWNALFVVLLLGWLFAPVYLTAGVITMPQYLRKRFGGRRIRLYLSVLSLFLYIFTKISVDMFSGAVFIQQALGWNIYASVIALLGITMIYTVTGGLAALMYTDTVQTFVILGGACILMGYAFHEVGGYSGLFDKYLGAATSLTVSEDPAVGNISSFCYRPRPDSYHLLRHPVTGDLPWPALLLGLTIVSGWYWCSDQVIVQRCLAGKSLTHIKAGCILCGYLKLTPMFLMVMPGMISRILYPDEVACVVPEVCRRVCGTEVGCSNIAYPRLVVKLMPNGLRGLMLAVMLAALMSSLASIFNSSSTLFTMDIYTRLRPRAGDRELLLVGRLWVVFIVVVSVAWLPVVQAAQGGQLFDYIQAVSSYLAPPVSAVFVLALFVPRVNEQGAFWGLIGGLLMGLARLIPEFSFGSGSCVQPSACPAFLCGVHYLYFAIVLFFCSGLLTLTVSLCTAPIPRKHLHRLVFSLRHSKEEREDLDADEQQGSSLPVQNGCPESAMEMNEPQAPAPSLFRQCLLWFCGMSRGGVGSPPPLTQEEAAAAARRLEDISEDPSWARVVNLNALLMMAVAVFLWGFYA
Experimental: (§1) Biological Example 1: SGLT1 and SGLT2 In Vitro Assays
(§2) The ability of the compounds of formula (I) of the present invention to treat an SGLT-mediated condition was determined using the following procedures:
(§3) SGLT1 and SGLT2 were cloned in form of cDNA from human small intestine (Genbank M24847), and from human kidney (Genbank M95549), respectively. Subsequently, each full cDNA was subcloned into pcDNA with each construct's integrity verified through follow-on sequencing. To generate CHO-K1 cells that stably express human SGLT1 or human SGLT2, CHO-K1 cells were transfected using DMRIE-C reagent (Life Technologies, Gaithersburg, Md.). Transfected cells were then selected in the presence of 500 μg/ml of the Geneticin (G418 Cellgro Catalog No. 30234-CI)
(§4) Individual clones were then characterized using the following cell-based assay for sodium-dependent glucose transport:
(§5) Inhibition of SGLT1 and SGLT2 activity was assessed in CHO K1 cells stably expressing either human SGLT1 or SGLT2, using the SGLT specific glucose analog methyl-glucopyranoside (Sigma Catalog No. M-9376). Cells were plated (45,000 cells/well) in white wall 96-well plates (COSTAR, Cat #3903) for 24 hours in growth medium, then a final concentration of 10 mM Na-Butyrate (ALDRICH Cat #30341-0) was added. The cells were incubated for 24 hours. On the day of the assay, cells were rinsed and treated with test compounds (at concentrations of 0.001 μM to 10 μM) in assay buffer (50 mM HEPES, 20 mM Tris base, 5 mM KCl, 1 mM MgCl2, 1 mM CaCl2 and 137 mM NaCl, pH 7.4) for 10 minutes. Cells were then incubated with ^14C-a-methyl-d-glucopyranoside (AMG, Amersham Catalog No. CFB 76), using 0.07 μCi per well in 500 µM AMG final concentration. The cells were incubated for 2 hours at 37° C. with 5% CO2 and washed two times with ice-cold Phosphate Buffer Solution (CELLGRO Catalog No. 21030-CV). The cells were then solubilized by adding 60 μl of MICROSCINT™ 20 and the Na-dependent ^14C-AMG uptake was quantified by measuring radioactivity. Plates were counted in a TopCount (Packard, Meriden, Conn.)
(§6) Representative compounds of the present invention were tested according to the procedures as described in Biological Example 1 and 2 above, with results as listed in Table 5, below. Results are reported as the %-inhibition or IC50 value. Variability for the functional assay was typically within 20%.

human SGLT1 = molecular target: T2, human SGLT1 (Homo sapiens, UniProt P13866); experiment: SGLT1 in vitro assay: Na-dependent 14C-AMG uptake in CHO-K1 cells stably expressing human SGLT1; assay type: cell-based; conditions: for inhibition at 0.3 µM: read-out: SGLT1 % Inh @ 0.3 μM; for IC50: compounds of formula (I) where R0 is fluoro
T2 construct: expressed in transfected cells
T2 sequence (P13866 1-664): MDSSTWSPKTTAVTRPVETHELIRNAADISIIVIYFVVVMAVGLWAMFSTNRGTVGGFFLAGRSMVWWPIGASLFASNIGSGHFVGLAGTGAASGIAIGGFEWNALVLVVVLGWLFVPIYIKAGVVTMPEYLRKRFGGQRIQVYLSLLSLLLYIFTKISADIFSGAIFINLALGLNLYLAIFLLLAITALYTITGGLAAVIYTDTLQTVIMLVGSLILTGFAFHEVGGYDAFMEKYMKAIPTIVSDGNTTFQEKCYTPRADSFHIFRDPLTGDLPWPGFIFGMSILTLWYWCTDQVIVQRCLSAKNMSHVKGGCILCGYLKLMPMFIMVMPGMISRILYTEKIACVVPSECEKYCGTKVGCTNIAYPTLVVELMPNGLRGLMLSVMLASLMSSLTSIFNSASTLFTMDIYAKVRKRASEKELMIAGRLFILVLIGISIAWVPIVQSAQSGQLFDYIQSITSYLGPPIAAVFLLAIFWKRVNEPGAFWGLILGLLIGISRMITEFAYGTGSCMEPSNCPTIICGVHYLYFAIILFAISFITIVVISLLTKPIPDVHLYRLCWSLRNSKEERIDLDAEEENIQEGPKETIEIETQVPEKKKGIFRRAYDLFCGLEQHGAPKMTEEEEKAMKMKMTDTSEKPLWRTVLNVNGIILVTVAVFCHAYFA
Experimental: as §1, §2, §3, §4, §5, §6

[1] = @ 0.3 μM, CHO-K1 cells stably expressing human SGLT2, 14C-AMG uptake
[2] = @ 0.3 μM, CHO-K1 cells stably expressing human SGLT1, 14C-AMG uptake
[3] = CHO-K1 cells stably expressing human SGLT2, 14C-AMG uptake
[4] = CHO-K1 cells stably expressing human SGLT1, 14C-AMG uptake

SGLT2 % Inh @ 0.3 μM (human SGLT2; [1]) [%]	SGLT1 % Inh @ 0.3 μM (human SGLT1; [2]) [%]	SMILES	other results
79.9	24.3	CCc1ccc(Cc2cc([C@@H]3O[C@H](CO)C(F)(F)[C@H](O)[C@H]3O)c(O)cc2C#N)cc1 [Compound 175]	–
88.0	16.5	CCc1ccc(Cc2cc([C@@H]3O[C@H](CO)C(F)(F)[C@H](O)[C@H]3O)c(OC)cc2Cl)cc1 [Compound 135]	–
82.6	39.2	CCc1cc(O)c([C@@H]2O[C@H](CO)C(F)(F)[C@H](O)[C@H]2O)cc1Cc1ccc(OC(F)(F)F)cc1 [Compound 104]	–
81.9	30.2	COc1ccc(Cc2cc([C@@H]3O[C@H](CO)C(F)(F)[C@H](O)[C@H]3O)c(OC)cc2OC)cc1 [Compound 92]	–
82.1	31.1	Cc1cc(O)c([C@@H]2O[C@H](CO)C(F)(F)[C@H](O)[C@H]2O)cc1Cc1cc2c(s1)CCN(C(=O)c1nccs1)C2 [Compound 80]	–
–	–	CCc1ccc(Cc2cc([C@@H]3O[C@H](CO)C(F)(F)[C@H](O)[C@H]3O)c(O)cc2Cl)cc1 [Compound 127, (2S,3R,4R,6R)-2-{4-chloro-5-[(4-ethylphenyl)methyl]-2-hydroxyphenyl}-5,5-difluoro-6-(hydroxymethyl)oxane-3,4-diol]	inhibition at 0.3 µM (human SGLT2; [1]): 89.2%; IC50 (human SGLT2; [3]): 2.6 nM; inhibition at 0.3 µM (human SGLT1; [2]): 67.6%; IC50 (human SGLT1; [4]): 142 nM
63.6	20.2	COc1cc(OC)c([C@@H]2O[C@H](CO)C(F)(F)[C@H](O)[C@H]2O)cc1Cc1ccc(OC(F)(F)F)cc1 [Compound 121]	–
84.5	32.7	CN(C)c1ccc(Cc2cc([C@@H]3O[C@H](CO)C(F)(F)[C@H](O)[C@H]3O)c(O)cc2C#N)cc1 [Compound 152]	–
75.0	30.6	COc1cc(OC)c([C@@H]2O[C@H](CO)C(F)(F)[C@H](O)[C@H]2O)cc1Cc1ccc(C2CC2)cc1 [Compound 144]	–
70.5	27.4	CCc1cc(OC)c([C@@H]2O[C@H](CO)C(F)(F)[C@H](O)[C@H]2O)cc1Cc1ccc(OC(F)(F)F)cc1 [Compound 109]	–
–	–	COc1cc(O)c([C@@H]2O[C@H](CO)[C@@](C)(F)[C@H](O)[C@H]2O)cc1Cc1ccc2c(c1)CCCO2 [Compound 2, (2S,3R,4R,5S,6R)-2-[5-(chroman-6-ylmethyl)-2-hydroxy-4-methoxy-phenyl]-5-fluoro-6-(hydroxymethyl)-5-methyl-tetrahydropyran-3,4-diol]	inhibition at 0.3 µM (human SGLT2; 0.3 μM, CHO-K1 cells expressing human SGLT2): 67.4%; inhibition at 0.3 µM (human SGLT1; 0.3 μM, CHO-K1 cells expressing human SGLT1): 31.1%
89.0	18.4	OC[C@H]1O[C@@H](c2cc(Cc3ccc([C@@H]4CCOC4)cc3)c(Cl)cc2O)[C@H](O)[C@@H](O)C1(F)F [Compound 46]	–
64.7	26.5	COc1cc(OC)c([C@@H]2O[C@H](CO)C(F)(F)[C@H](O)[C@H]2O)cc1Cc1ccc(OCF)cc1 [Compound 147]	–
92.5	29.5	COc1cc(Cl)c(Cc2ccc(OC(F)(F)F)cc2)cc1[C@@H]1O[C@H](CO)C(F)(F)[C@H](O)[C@H]1O [Compound 106]	–
–	–	Cc1ccc(Cc2cc([C@@H]3O[C@H](CO)C(F)(F)[C@H](O)[C@H]3O)c(O)cc2C)cc1F [Compound 177]	inhibition at 0.3 µM (human SGLT2; [1]): 87.8%; IC50 (human SGLT2; [3]): 3.1 nM; inhibition at 0.3 µM (human SGLT1; [2]): 79.6%; IC50 (human SGLT1; [4]): 13 nM
54.4	28.5	Cc1ccc([C@@H]2O[C@H](CO)C(F)(F)[C@H](O)[C@H]2O)cc1Cc1cc2c(s1)CCN(C(=O)C1CCCC1)C2 [Compound 84]	–
–	–	COc1cc(C)c(Cc2ccc(Cl)s2)cc1[C@@H]1O[C@H](CO)C(F)(F)[C@H](O)[C@H]1O [Compound 112]	inhibition at 0.3 µM (human SGLT2; [1]): 81.1%; IC50 (human SGLT2; [3]): 4.5 nM; inhibition at 0.3 µM (human SGLT1; [2]): 43.5%; IC50 (human SGLT1; [4]): 1030 nM
58.0	32.2	CCc1ccc(Cc2cc(C3OC(CO)C(F)(F)C(O)C3O)cc3c2OCC3CO)cc1 (mixture of isomers) [Compound 61]	–
77.2	30.3	COc1cc(C)c(Cc2ccc(OC(F)(F)F)cc2)cc1[C@@H]1O[C@H](CO)C(F)(F)[C@H](O)[C@H]1O [Compound 101]	–
81.9	36.8	CCc1ccc(Cc2cc([C@@H]3O[C@H](CO)C(F)(F)[C@H](O)[C@H]3O)cc3c2OCC3)cc1 [Compound 58]	–
–	–	OC[C@H]1O[C@@H](c2cc(Cc3ccc4c(c3)OCCO4)c(Cl)cc2O)[C@H](O)[C@@H](O)C1(F)F [Compound 45, (2S,3R,4R,6R)-2-[4-chloro-5-(2,3-dihydro-1,4-benzodioxin-6-ylmethyl)-2-hydroxy-phenyl]-5,5-difluoro-6-(hydroxymethyl)tetrahydropyran-3,4-diol]	inhibition at 0.3 µM (human SGLT2; [1]): 82%; IC50 (human SGLT2; [3]): 1.4 nM; inhibition at 0.3 µM (human SGLT1; [2]): 81.7%; IC50 (human SGLT1; [4]): 49 nM
76.0	8.4	COc1ccc(Cc2cc([C@@H]3O[C@H](CO)C(F)(F)[C@H](O)[C@H]3O)c(OC)cc2Cl)cc1 [Compound 87]	–
–	–	COc1cc(Cl)c(Cc2ccc3c(c2)OCCO3)cc1[C@@H]1O[C@H](CO)C(F)(F)[C@H](O)[C@H]1O [Compound 48, (2S,3R,4R,6R)-2-[4-chloro-5-(2,3-dihydro-1,4-benzodioxin-6-ylmethyl)-2-methoxy-phenyl]-5,5-difluoro-6-(hydroxymethyl)tetrahydropyran-3,4-diol]	inhibition at 0.3 µM (human SGLT2; [1]): 78.1%; inhibition at 0.3 µM (human SGLT1; [2]): 36.5%
94.7	26.3	Cc1c(Cc2ccc3c(c2)CCCO3)cc([C@@H]2O[C@H](CO)C(F)(F)[C@H](O)[C@H]2O)c2c1CCO2 [Compound 103]	–
